20 molecules from ChEMBL document CHEMBL1140747, “Discovery of potent and selective dipeptidyl peptidase IV inhibitors derived from beta-aminoamides bearing subsituted triazolopiperazines” (J Med Chem, 2008) can be followed below.

The target of assay [1] is Dipeptidyl peptidase 4 (Homo sapiens, UniProt P27487).
Assay [2] has as its target Dipeptidyl peptidase 2 (Homo sapiens, UniProt Q9UHL4). Nature of the assay: Inhibition of QPP.
Assay [3] concerns the target Dipeptidyl peptidase 8 (Homo sapiens, UniProt Q6V1X1). Nature of the assay: Inhibition of DPP8.
Assay [4] has as its target Dipeptidyl peptidase 9 (Homo sapiens, UniProt Q86TI2). Put plainly: Inhibition of DPP9.
For assay [5], the target named is Xaa-Pro aminopeptidase 1 (Homo sapiens, UniProt Q9NQW7). Put plainly: Inhibition of amino peptidase P.
Chain of Xaa-Pro aminopeptidase 1 (Q9NQW7 whole entry): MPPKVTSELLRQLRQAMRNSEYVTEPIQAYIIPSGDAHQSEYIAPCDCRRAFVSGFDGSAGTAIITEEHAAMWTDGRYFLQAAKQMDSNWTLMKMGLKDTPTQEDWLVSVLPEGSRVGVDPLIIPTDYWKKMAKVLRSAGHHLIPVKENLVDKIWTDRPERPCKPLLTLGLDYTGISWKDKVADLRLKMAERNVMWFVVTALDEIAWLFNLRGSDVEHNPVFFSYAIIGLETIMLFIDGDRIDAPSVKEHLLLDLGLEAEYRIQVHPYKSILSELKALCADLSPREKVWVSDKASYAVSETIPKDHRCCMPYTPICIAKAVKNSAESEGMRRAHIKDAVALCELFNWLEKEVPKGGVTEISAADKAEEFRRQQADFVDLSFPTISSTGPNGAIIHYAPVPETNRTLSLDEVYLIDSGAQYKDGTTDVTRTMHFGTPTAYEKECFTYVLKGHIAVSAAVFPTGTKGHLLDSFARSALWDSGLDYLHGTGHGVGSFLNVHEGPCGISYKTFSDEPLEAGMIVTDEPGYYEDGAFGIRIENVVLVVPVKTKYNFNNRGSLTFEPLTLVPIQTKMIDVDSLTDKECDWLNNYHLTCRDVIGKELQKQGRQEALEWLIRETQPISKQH
Assay [6] deals with T1, Xaa-Pro dipeptidase (Homo sapiens, UniProt P12955).
T1 sequence (P12955 whole entry): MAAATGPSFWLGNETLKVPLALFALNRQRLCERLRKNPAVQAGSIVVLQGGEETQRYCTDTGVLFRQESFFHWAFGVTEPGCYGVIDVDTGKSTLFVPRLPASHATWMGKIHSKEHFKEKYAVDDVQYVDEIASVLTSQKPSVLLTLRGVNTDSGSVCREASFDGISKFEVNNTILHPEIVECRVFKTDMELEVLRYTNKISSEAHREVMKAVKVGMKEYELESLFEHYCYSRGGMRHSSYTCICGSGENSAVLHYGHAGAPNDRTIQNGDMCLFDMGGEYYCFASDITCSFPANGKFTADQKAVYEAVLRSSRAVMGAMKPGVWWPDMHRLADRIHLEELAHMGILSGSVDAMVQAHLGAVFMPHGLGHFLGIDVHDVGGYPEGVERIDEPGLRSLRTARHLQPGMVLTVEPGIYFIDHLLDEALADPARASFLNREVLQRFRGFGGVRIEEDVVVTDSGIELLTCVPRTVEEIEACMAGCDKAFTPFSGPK
Nature of the assay: Inhibition of prolidase.

Assay [7] has as its target T2, Prolyl endopeptidase FAP (Homo sapiens, UniProt Q12884).
T2 sequence (Q12884 whole entry): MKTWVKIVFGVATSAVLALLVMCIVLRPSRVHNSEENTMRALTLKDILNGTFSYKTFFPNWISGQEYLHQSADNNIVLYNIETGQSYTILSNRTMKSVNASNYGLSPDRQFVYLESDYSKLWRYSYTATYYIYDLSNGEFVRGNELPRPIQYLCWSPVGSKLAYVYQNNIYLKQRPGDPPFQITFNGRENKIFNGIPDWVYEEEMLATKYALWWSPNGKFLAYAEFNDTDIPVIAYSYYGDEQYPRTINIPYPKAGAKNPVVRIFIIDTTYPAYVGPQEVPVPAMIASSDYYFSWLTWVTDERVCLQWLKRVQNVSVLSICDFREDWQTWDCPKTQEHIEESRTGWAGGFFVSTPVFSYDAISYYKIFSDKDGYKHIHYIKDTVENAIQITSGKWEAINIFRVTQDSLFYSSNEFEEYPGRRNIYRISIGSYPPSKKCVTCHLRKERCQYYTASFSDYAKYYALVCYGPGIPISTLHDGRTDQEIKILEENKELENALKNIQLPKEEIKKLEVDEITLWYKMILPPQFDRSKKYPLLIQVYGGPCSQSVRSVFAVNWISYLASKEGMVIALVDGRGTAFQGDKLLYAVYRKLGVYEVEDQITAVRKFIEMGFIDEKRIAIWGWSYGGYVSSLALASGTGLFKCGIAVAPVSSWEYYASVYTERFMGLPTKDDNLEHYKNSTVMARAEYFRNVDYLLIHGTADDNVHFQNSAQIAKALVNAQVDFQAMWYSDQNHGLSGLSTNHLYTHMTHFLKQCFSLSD
Nature of the assay: Inhibition of FAP.

Chain of Dipeptidyl peptidase 8 (Q6V1X1 whole entry): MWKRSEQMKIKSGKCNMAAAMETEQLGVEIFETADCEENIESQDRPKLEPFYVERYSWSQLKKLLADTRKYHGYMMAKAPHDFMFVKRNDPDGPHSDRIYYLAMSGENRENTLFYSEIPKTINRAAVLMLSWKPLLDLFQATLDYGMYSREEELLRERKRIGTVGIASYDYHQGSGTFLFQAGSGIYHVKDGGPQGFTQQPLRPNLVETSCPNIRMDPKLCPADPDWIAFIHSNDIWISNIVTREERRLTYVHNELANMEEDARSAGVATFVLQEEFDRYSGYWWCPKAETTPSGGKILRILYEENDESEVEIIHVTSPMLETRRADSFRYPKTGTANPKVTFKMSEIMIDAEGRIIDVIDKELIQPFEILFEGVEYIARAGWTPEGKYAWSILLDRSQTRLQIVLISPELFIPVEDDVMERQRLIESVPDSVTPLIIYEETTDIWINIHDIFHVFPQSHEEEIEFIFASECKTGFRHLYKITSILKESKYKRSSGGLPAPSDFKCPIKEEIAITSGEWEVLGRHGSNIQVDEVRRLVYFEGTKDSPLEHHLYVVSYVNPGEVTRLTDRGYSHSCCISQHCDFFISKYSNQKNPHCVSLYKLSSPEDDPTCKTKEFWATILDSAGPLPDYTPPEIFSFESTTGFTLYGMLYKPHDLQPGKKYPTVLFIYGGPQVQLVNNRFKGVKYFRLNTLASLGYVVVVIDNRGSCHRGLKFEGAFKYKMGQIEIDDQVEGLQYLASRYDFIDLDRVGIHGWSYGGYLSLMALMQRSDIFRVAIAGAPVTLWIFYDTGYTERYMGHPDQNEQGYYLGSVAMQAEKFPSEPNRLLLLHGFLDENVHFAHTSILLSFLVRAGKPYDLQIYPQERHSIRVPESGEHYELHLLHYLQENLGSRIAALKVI
Chain of Dipeptidyl peptidase 4 (P27487 whole entry): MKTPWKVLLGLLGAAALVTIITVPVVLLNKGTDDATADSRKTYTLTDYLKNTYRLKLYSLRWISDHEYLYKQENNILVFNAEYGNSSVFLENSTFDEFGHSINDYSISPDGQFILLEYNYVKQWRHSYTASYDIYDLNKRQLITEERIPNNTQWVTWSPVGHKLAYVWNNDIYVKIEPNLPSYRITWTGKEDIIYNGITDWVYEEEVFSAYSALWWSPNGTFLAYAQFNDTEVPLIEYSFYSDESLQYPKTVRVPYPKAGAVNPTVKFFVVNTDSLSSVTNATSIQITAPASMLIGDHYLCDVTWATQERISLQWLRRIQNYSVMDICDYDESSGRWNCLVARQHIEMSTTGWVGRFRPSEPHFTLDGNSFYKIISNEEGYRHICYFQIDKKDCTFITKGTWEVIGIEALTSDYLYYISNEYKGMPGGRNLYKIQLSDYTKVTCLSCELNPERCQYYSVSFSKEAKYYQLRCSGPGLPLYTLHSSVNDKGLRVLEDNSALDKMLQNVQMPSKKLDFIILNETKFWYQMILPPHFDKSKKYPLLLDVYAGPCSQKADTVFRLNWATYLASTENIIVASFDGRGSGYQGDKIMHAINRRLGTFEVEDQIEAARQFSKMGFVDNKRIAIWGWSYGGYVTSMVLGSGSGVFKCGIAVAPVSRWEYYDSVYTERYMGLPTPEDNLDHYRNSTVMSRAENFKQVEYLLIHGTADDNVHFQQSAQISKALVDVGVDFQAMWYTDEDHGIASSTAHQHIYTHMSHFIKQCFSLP
Chain of Dipeptidyl peptidase 9 (Q86TI2 whole entry): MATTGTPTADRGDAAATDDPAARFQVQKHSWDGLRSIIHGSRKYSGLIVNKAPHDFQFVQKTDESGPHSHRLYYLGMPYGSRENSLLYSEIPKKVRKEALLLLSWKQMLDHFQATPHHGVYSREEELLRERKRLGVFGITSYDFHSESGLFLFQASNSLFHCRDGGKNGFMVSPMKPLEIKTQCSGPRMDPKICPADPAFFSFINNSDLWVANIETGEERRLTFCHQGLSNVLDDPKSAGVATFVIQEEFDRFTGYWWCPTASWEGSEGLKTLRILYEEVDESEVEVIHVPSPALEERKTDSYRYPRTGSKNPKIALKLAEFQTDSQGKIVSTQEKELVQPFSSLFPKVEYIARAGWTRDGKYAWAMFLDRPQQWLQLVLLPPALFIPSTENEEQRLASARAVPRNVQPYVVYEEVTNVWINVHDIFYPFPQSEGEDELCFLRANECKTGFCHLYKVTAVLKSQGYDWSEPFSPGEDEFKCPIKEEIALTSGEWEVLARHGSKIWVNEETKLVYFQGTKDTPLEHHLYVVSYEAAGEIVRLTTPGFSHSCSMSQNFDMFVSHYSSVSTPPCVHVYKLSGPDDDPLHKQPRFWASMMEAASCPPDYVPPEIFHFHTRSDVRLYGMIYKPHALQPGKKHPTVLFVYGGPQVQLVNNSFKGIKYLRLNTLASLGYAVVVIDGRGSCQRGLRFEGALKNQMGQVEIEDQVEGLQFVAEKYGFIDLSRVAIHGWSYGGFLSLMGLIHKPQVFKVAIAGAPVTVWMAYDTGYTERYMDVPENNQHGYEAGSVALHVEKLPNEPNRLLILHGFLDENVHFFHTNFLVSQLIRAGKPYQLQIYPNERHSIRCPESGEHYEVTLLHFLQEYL

For the molecule `CN(C)C(=O)CC1c2nnc(C(F)(F)F)n2CCN1C(=O)C[C@H](N)Cc1cc(F)c(F)cc1F` (stereo in doubt; 41a), the half-inhibitory concentration (IC50) in assay [1] was 0.377 µM; in assay [2] it was > 100 µM; in assay [3], > 100 µM; in assay [4], > 100 µM; in assay [5], > 10 µM; in assay [6], > 10 µM. In assay [7], the half-inhibitory concentration (IC50) was > 10 µM.
As for `N[C@@H](CC(=O)N1CCn2c(nnc2C(F)(F)F)C1C(O)c1ccc(F)cc1)Cc1cc(F)c(F)cc1F` (stereo in doubt; 47c), the 50% inhibitory concentration (IC50) in assay [1] was 0.09 µM; in assay [2], > 100 µM; in assay [3], 40 µM; in assay [4], > 100 µM; in assay [5] it was > 10 µM; in assay [6], > 10 µM. Further, in assay [7], the IC50 is > 10 µM.
On to `COc1ccc(CC2c3nnc(C(F)(F)F)n3CCN2C(=O)C[C@H](N)Cc2cc(F)c(F)cc2F)cc1` (stereo in doubt; 43a), for which the IC50 in assay [1] is 0.32 µM; in assay [2], > 100 µM; in assay [3] it was > 100 µM; in assay [4], > 100 µM; in assay [5], > 10 µM; in assay [6] it was > 10 µM. The IC50 in assay [7] was > 10 µM.
Consider `COc1ccc(CC2c3nnc(C(F)(F)F)n3CCN2C(=O)C[C@H](N)Cc2cc(F)c(F)cc2F)cc1` (stereo in doubt; 43b), for which the half-maximal inhibitory concentration (IC50) in assay [1] was 0.00043 µM; in assay [2], 57 µM; in assay [3] it was 0.367 µM; in assay [4], 18 µM; in assay [5], > 10 µM; in assay [6], > 10 µM. Moreover, the 50% inhibitory concentration (IC50) in assay [7] was > 10 µM.
In the case of `C[C@@H]1Cn2c(nnc2C(F)(F)F)CN1C(=O)C[C@H](N)Cc1cc(F)c(F)cc1F`, the IC50 in assay [1] is 0.042 µM; in assay [2], > 100 µM; in assay [3] it was 75 µM; in assay [4] it was > 100 µM; in assay [5], > 10 µM; in assay [6] it was > 10 µM. Also, in assay [7], the IC50 is > 10 µM.
For the molecule `N[C@@H](CC(=O)N1CCn2c(nnc2C(F)(F)F)C1Cc1ccccc1)Cc1cc(F)c(F)cc1F` (single isomer, unassigned), the half-maximal inhibitory concentration (IC50) was 0.14 µM in assay [1]; 87 µM in assay [2]; > 100 µM in assay [3]; > 100 µM in assay [4]; > 10 µM in assay [5]; > 10 µM in assay [6]. Further, the IC50 in assay [7] is > 10 µM.
For the molecule `N[C@@H](CC(=O)N1CCn2c(nnc2C(F)(F)F)[C@@H]1Cc1ccc(F)cc1)Cc1cc(F)c(F)cc1F`, the IC50 in assay [1] is 0.116 µM; in assay [2], 39 µM; in assay [3], > 100 µM; in assay [4], > 100 µM; in assay [5], > 10 µM; in assay [6], > 10 µM. The IC50 in assay [7] was > 10 µM.
For `N[C@@H](CC(=O)N1CCn2c(nnc2C(F)(F)F)C1Cc1ccccc1F)Cc1cc(F)c(F)cc1F` (stereo in doubt; 45a), the IC50 in assay [1] is 0.131 µM; in assay [2], 76 µM; in assay [3], > 100 µM; in assay [4], > 100 µM; in assay [5] it was > 10 µM; in assay [6] it was > 10 µM. In addition, in assay [7], the IC50 is > 10 µM.
Take `C[C@H]1c2nnc(C(F)(F)F)n2CCN1C(=O)C[C@H](N)Cc1cc(F)c(F)cc1F`: the IC50 in assay [1] was 0.088 µM; in assay [2], > 100 µM; in assay [3], > 100 µM; in assay [4], > 100 µM; in assay [5], > 10 µM; in assay [6], > 10 µM. The IC50 in assay [7] was > 10 µM.
Consider `N[C@@H](CC(=O)N1CCNCC1)Cc1ccccc1F`, for which the IC50 in assay [5] and in assay [6] was > 10 µM each time.
Take `N[C@@H](CC(=O)N1CCn2c(nnc2C(F)(F)F)C1CC(F)(F)F)Cc1cc(F)c(F)cc1F` (stereo in doubt; 39a): the IC50 in assay [1] was 0.123 µM; in assay [2], 30 µM; in assay [3], > 100 µM; in assay [4], > 100 µM; in assay [5], > 10 µM; in assay [6], > 10 µM. In assay [7], the IC50 is > 10 µM.
Regarding `CC1c2nnc(C(F)(F)F)n2C(C)CN1C(=O)C[C@H](N)Cc1cc(F)c(F)cc1F` (stereo in doubt; 16a), the IC50 in assay [1] is 0.1 µM; in assay [2], > 100 µM; in assay [3] it was > 100 µM; in assay [4], > 100 µM; in assay [5], > 10 µM; in assay [6], > 10 µM. Also, the IC50 in assay [7] was > 10 µM.
On to `CCC1c2nnc(C(F)(F)F)n2CCN1C(=O)C[C@H](N)Cc1cc(F)c(F)cc1F` (stereo in doubt; 38a), for which the IC50 is 0.113 µM in assay [1]; > 100 µM in assay [2]; > 100 µM in assay [3]; > 100 µM in assay [4]; > 10 µM in assay [5]; > 10 µM in assay [6]. In assay [7], the IC50 was > 10 µM.
In the case of `N[C@@H](CC(=O)N1CCn2c(nnc2C(F)(F)F)C1Cc1ccccc1)Cc1cc(F)c(F)cc1F` (stereo in doubt; 42b), the IC50 in assay [1] was 0.00066 µM; in assay [2] it was 52 µM; in assay [3], 0.622 µM; in assay [4], 24 µM; in assay [5], > 10 µM; in assay [6], > 10 µM. Also, in assay [7], the IC50 is > 10 µM.
`C[C@H]1c2nnc(C(F)(F)F)n2[C@@H](C)CN1C(=O)C[C@H](N)Cc1cc(F)c(F)cc1F`: the IC50 in assay [1] is 0.209 µM; in assay [2], > 100 µM; in assay [3], > 100 µM; in assay [4], > 100 µM; in assay [5], > 10 µM; in assay [6], > 10 µM. Further, the IC50 in assay [7] is > 10 µM.
Regarding `CC1c2nnc(C(F)(F)F)n2C(C)CN1C(=O)C[C@H](N)Cc1cc(F)c(F)cc1F` (stereo in doubt; 16d), the concentration for half-maximal inhibition (IC50) in assay [1] is 0.011 µM; in assay [2], > 100 µM; in assay [3] it was 44 µM; in assay [4], 62 µM; in assay [5] it was > 10 µM; in assay [6], > 10 µM. For the same molecule, the IC50 in assay [7] was > 10 µM.
Regarding `C=CCC1c2nnc(C(F)(F)F)n2CCN1C(=O)C[C@H](N)Cc1cc(F)c(F)cc1F` (stereo in doubt; 40b), the IC50 in assay [1] is 0.032 µM; in assay [2], 62 µM; in assay [3], 72 µM; in assay [4] it was > 100 µM; in assay [5], > 10 µM; in assay [6] it was > 10 µM. The half-maximal inhibitory concentration (IC50) in assay [7] is > 10 µM.
For the molecule `N[C@@H](CC(=O)N1CCn2c(nnc2C(F)(F)F)C1C(O)c1ccc(F)cc1)Cc1cc(F)c(F)cc1F` (stereo in doubt; 47d), the IC50 in assay [1] was 0.0005 µM; in assay [2], 41 µM; in assay [3], 0.628 µM; in assay [4], > 100 µM; in assay [5], > 10 µM; in assay [6], > 10 µM. Moreover, the concentration for half-maximal inhibition (IC50) in assay [7] was > 10 µM.
On to `N[C@@H](CC(=O)N1CCn2c(nnc2C(F)(F)F)C1Cc1ccccn1)Cc1cc(F)c(F)cc1F` (stereo in doubt; 49a), for which the IC50 in assay [1] was 0.132 µM; in assay [2], > 100 µM; in assay [3], > 100 µM; in assay [4], > 100 µM; in assay [5], > 10 µM; in assay [6] it was > 10 µM. Besides, in assay [7], the IC50 is > 10 µM.
As for `N[C@@H](CC(=O)N1CCNC[C@H]1Cc1ccccc1)Cc1ccccc1F`, the half-maximal inhibitory concentration (IC50) in assay [5] and in assay [6] was > 10 µM throughout.

What is called IC50 is the concentration at which inhibition is half-maximal. A lower IC50 goes with greater potency.
